Columns and labels:
[1] = oral administration to rats, pharmacokinetics compared with Mirabegron; type: in vivo; conditions: oral administration to Sprague Dawley rats, compared to the parent compound Mirabegron
[2] = esterase cleavage / half-life in rat blood plasma; type: in vitro ADME; conditions: for esterase cleavage: after 1 h
Method: (§1) Almost 100 % esterase cleavage was found in rat blood plasma after 1 h, whereas about 70 % of the prodrug was cleaved within 4 hours in human blood plasma.
(§2) The half-life of Benzoyloxy(methoxy)carbonyl-Nphenethyl-Mirabegron in rat blood plasma and in human blood plasma was less than 0.5 h. Almost 100 % esterase cleavage was found in rat blood plasma after 1 h, whereas almost 100 % of the prodrug was cleaved within 4 hours in human blood plasma.

[3] = esterase cleavage / half-life in human blood plasma; type: in vitro ADME; conditions: for prodrug cleaved (esterase cleavage): within 4 hours
Method: as §1, §2

SMILES	Cmax [1]	Tmax [1]	half-life [2]	esterase cleavage [2]	half-life [3]	prodrug cleaved (esterase cleavage) [3]
CC(OC(=O)C(C)C)OC(=O)N(CCc1ccc(NC(=O)Cc2csc(N)n2)cc1)C[C@H](O)c1ccccc1 (stereo partly shown) [Enacarbil-Nphenethyl-Mirabegron]	higher	earlier	less than 0.5 h	~100%	less than 2.5 h	about 70%
Nc1nc(CC(=O)Nc2ccc(CCN(C[C@H](O)c3ccccc3)C(=O)OCOC(=O)c3ccccc3)cc2)cs1 [Benzoyloxy(methoxy)carbonyl-Nphenethyl-Mirabegron]			less than 0.5 h	~100%	less than 0.5 h	~100%
